Assay results published in BindingDB's records for patent US12180207 (Array Biopharma, 2024).

Experiments:
[1] = target: T1, Fibroblast growth factor receptor 3 (Homo sapiens, UniProt P22607); test: Enzyme Assay
Protocol: (§1) he potency of compounds inhibiting human isoforms of FGFR kinase was determined using Life Technologies' Homogeneous Time Resolved Fluorescence (HTRF)-based binding assay technology. […] After a 60 minute incubation at 22° C., the extent of tracer displacement was determined using a PerkinElmer EnVision multimode plate reader via HTRF dual wavelength detection, and the percent of control (POC) was calculated using a ratiometric emission factor. One hundred POC was determined using no test compound, and 0 POC was determined in the presence of 1 μM of an appropriate control inhibitor.

[2] = target: T2, Fibroblast growth factor receptor 1 (Homo sapiens, UniProt P11362); test: Enzyme Assay
T2 sequence (P11362 whole entry): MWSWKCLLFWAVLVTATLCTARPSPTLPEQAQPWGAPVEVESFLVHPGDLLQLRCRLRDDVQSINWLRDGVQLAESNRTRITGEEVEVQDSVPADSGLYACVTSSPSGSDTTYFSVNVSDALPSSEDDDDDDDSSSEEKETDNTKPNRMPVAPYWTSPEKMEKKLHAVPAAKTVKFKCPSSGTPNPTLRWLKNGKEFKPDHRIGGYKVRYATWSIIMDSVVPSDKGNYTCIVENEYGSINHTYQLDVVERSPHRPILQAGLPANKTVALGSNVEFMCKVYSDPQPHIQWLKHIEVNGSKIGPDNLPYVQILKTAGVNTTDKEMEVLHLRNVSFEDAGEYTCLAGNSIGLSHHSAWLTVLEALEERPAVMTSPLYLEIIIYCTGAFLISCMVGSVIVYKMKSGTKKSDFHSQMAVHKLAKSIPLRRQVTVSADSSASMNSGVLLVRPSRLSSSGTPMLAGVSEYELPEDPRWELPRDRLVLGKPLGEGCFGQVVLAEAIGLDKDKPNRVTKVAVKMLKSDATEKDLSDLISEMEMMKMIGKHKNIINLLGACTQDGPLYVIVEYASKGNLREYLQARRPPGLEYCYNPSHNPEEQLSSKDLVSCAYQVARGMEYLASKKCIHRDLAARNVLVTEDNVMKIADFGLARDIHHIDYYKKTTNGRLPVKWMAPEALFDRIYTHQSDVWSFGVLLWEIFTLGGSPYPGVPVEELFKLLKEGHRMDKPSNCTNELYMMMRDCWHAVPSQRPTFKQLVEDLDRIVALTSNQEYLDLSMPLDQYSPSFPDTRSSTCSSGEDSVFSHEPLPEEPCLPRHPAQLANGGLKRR
Protocol: as §1

[3] = target: T3, Fibroblast growth factor receptor 2 (Homo sapiens, UniProt P21802); test: FGFR2 Enzyme Activity Assay
T3 sequence (P21802 whole entry): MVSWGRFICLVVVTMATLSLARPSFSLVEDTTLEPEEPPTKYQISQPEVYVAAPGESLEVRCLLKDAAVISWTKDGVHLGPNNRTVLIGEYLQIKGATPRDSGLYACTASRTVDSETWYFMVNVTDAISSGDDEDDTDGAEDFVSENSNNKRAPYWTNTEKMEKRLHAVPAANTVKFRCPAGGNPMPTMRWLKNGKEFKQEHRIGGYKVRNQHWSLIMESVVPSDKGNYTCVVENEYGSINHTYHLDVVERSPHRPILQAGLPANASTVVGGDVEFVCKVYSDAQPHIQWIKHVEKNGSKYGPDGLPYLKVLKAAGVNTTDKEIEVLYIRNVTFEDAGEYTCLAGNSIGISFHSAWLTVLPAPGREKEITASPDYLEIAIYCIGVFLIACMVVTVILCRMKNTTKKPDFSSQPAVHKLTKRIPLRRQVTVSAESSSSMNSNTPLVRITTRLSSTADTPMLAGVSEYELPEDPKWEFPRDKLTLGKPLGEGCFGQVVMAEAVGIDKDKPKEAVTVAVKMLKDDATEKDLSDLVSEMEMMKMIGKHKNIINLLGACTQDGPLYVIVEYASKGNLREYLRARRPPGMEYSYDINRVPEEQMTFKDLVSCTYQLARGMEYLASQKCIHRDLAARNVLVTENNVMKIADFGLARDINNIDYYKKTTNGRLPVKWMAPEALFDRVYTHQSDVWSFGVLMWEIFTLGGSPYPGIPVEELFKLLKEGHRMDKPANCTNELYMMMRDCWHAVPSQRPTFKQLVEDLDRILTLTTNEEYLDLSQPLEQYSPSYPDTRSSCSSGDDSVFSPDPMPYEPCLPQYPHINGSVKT
Protocol: (§2) FGFR2 kinase activity was measured by the Invitrogen LanthaScreen™ Assay technology which directly measures the amount of substrate phosphorylation by TR-FRET using a fluorescently-labeled peptide and Europium-labeled antibody. […] After a 20 minute incubation at 22° C., an equal volume of 2 nM LanthaScreen Eu-PY20 Antibody (Life Technologies Cat. No. PV5691) and 10 mM EDTA were added to quench the kinase reaction and start the detection reaction. After an additional 60 minute incubation at 22° C., the reaction was measured using a PerkinElmer EnVision multimode plate reader via TR-FRET dual wavelength detection, and the percent of control (POC) calculated using a ratiometric emission factor. 100 POC was determined using no test compounds and 0 POC was determined using no enzyme. The POC values were fit to a 4-parameter logistic curve as a function of the concentration of the compound, and the IC50 value is the point where the curve crosses 50 POC.

[4] = target: T2, Fibroblast growth factor receptor 1; test: FGFR1 Enzyme Activity Assay
Protocol: as §2, with “FGFR1 kinase” for “FGFR2 kinase”, “by Time-resolved fluorescence energy transfer (TR-FRET)” for “by TR-FRET”, “20 minutes” for “20 minute”, “EDTA was” for “EDTA were”

[5] = target: T1, Fibroblast growth factor receptor 3; test: FGFR3 Enzyme Activity Assay
Protocol: as §2, with “FGFR3 kinase” for “FGFR2 kinase”, “a 10” for “a 20”

[6] = target: T3, Fibroblast growth factor receptor 2; test: Enzyme Assay
Protocol: as §1

T1 sequence (P22607 whole entry, canonical isoform): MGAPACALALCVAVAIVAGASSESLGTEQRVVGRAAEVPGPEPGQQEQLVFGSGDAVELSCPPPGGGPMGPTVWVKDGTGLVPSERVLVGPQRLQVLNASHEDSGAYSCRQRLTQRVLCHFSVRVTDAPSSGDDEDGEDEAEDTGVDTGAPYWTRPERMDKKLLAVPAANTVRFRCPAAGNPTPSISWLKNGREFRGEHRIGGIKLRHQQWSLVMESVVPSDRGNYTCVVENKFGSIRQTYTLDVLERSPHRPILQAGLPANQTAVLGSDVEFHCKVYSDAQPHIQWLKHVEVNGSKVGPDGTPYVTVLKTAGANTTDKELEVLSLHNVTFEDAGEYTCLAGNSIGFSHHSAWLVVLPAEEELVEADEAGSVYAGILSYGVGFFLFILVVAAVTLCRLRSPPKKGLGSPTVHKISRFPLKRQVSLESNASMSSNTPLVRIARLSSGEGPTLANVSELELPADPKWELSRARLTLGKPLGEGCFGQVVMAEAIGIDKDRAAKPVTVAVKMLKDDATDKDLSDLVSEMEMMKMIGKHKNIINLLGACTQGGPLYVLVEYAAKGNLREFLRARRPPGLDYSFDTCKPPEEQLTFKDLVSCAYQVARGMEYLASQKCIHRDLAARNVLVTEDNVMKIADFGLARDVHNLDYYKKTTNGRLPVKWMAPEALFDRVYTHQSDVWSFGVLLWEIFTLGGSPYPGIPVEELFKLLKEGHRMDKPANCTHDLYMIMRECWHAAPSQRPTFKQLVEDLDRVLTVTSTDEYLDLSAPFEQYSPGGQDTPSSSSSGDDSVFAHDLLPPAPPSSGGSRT

Compound | IC50 [1] [nM] | IC50 [2] [nM] | IC50 [3] [nM] | IC50 [4] [nM] | IC50 [5] [nM] | IC50 [6] [nM]
C=CC(=O)N[C@H]1CCC[C@@H](C(=O)N2CCC(n3cc(-c4cc(OC)c5c(C#N)cnn5c4)cn3)CC2)C1 [US12180207, Example 19] | 11 | 56 | 8 | 20 | 7 | –
C=CC(=O)N[C@@H]1CC[C@H](C(=O)N2CCC(n3cc(-c4cc(OC)c5c(C#N)cnn5c4)cn3)CC2)C1 [US12180207, Example 32] | 31 | 113 | 4 | 13 | 3 | –
C=CC(=O)N[C@H]1CC[C@@H](C(=O)N2CCC(n3cc(-c4cc(OC)c5c(C#N)cnn5c4)cn3)CC2)C1 [US12180207, Example 33] | 3 | 20 | 4 | – | 1 | –
C=CC(=O)N[C@@H]1CC[C@@H](C(=O)N2CCC(n3cc(-c4cc(OC)c5c(C#N)cnn5c4)cn3)CC2)C1 [US12180207, Example 34] | 36 | 231 | 5 | 19 | 2 | –
C=CC(=O)N[C@H]1CC[C@H](C(=O)N2CCC(n3cc(-c4cc(OC)c5c(C#N)cnn5c4)cn3)CC2)C1 [US12180207, Example 35] | 23 | 119 | 5 | 19 | 3 | –
C=CC(=O)Nc1ccc(S(=O)(=O)N2CCC(n3cc(-c4cc(OC)c5c(C#N)cnn5c4)cn3)CC2)cc1 [US12180207, Example 49] | 13 | 113 | – | 43 | 5 | –
C=CC(=O)N[C@H]1CC[C@H](C(=O)N2CC(n3cc(-c4cc(OC)c5c(C#N)cnn5c4)cn3)C2)C1 [US12180207, Example 77] | 118 | 393 | 12 | 35 | 11 | –
C=C(F)C(=O)N1CC(C(=O)N2CCC(n3cc(-c4cc(OC)c5c(C#N)cnn5c4)cn3)CC2)C1 [US12180207, Example 140] | 7 | 37 | 2 | 21 | 4 | 19
COc1cc(-c2cnn(C3CCN(C(=O)C4CN(C(=O)/C=C/CF)C4)CC3)c2)cn2ncc(C#N)c12 [US12180207, Example 142] | 5 | 36 | 3 | 20 | – | 16
COc1cc(-c2cnn(C3CCN(C(=O)/C=C/CN(C)C)CC3)c2)cn2ncc(C#N)c12 [US12180207, Example 144] | 24 | 276 | 5 | 11 | 4 | –
COc1cc(-c2cnn(C3CN(CC4CN(C(=O)/C=C/CN(C)C)C4)C3)c2)cn2ncc(C#N)c12 [US12180207, Example 148] | 14 | 217 | 6 | 47 | 4 | –
COc1cc(-c2cnn(C3CN(C(=O)C4CN(C(=O)/C=C/CN(C)C)C4)C3)c2)cn2ncc(C#N)c12 [US12180207, Example 150] | 22 | 229 | 6 | 8 | 7 | –
C=CS(=O)(=O)N[C@H]1CC[C@H](C(=O)N2CCC(n3cc(-c4cc(OC)c5c(C#N)cnn5c4)cn3)CC2)CC1 [US12180207, Example 187] | 4 | 31 | 5 | 17 | – | –
C=CS(=O)(=O)N[C@H]1C[C@@H](C(=O)N2CCC(n3cc(-c4cc(OC)c5c(C#N)cnn5c4)cn3)CC2)C1 [US12180207, Example 193] | – | 36 | – | 7 | – | –
C=CS(=O)(=O)N[C@H]1C[C@H](C(=O)N2CCC(n3cc(-c4cc(OC)c5c(C#N)cnn5c4)cn3)CC2)C1 [US12180207, Example 194] | – | 93 | – | 13 | – | –
C=CS(=O)(=O)Nc1ccc(C(=O)N2CCC(n3cc(-c4cc(OC)c5c(C#N)cnn5c4)cn3)CC2)cc1 [US12180207, Example 196] | 3 | 31 | 8 | 10 | 2 | –
